Data from US7157092B1, “Acyl pseudodipeptides, preparation method and pharmaceutical compositions containing same” (Om Pharma, priority 1998, dated 2007).
Read-outs that look alike come from different tables or passages of the source.

Legend:
murine macrophage cells = experiment: Nitric oxide production in supernatants of macrophage cultures (Griess); format: cell-based, C57/BL6 mice; settings: 22 hours incubation, Griess reagent; FIG. 2
Description: Two six-week old male C57/BL6 mice were killed by CO2 inhalation followed by cervical dislocation. The mice were washed with alcohol, and the skin of the posterior members was entirely removed. The hip, the femur and the tibia bones were removed by joint disruption. The flesh was grossly removed using a scalpel. The bones were cleaned and the bone ends were cut with scissors. The marrrow was aspirated by injecting three times 1 ml of Dulbecco's Modified Eagle Medium (DH medium) in the bone lumen. The cells were resuspended in DH medium and centrifuged at 300×g for 5 minutes. The supernatant fluid was discarded and the cells were resuspended at a density of 40 000 cells/ml in DH medium supplemented with 20% horse serum (HS) and 30% L929 culture supernatant. L929 is a murine fibroblast cell line the supernatant fluid of which is rich in growth factor for macrophage (M-CSF). […]
After 22 hours, the microtiter plates were centrifuged, 5 minutes at 400×g and 100 μl of supernatant fluid were withdrawn and transferred into a microtiter plate. […] The microtiter plates were read with a spectrophotometer at 562 nm wavelength against a reference at 690 nm. […]
The results are expressed as mean±standard deviation after deduction of the negative control value and plotted as a dose versus response curve.

[1] = tested on: Pb CS His6-242-310 antigen; experiment: Murine immunization with Pb CS His6-242-310 peptide: specific antibody titer (ELISA); format: in vivo, BALB/c mice; settings: 0.05 mg adjuvant + 0.02 mg antigen s.c.; for serological response following three shots: ELISA 2 weeks after third shot, FIG. 15; for anti-Pb CS His6-242-310 antibody titer after one single shot: ELISA 3 weeks after first shot, FIG. 13; for serological response after two shots: ELISA 4 weeks after second shot, FIG. 14
Description: Antigen: Pb CS([…] Chem., 8: (1979) 350–341).
Serum sampling: Blood sampling is conducted at weeks 0, 3, 7 and 9. Blood is allowed to stand for 6 min. at 37° C., then is kept overnight at 4° C. Serum is subsequently frozen at −80° C. until time of antibody assay.
Assay of antibodies specifically raised against Pb Cs His6 242-310 antigen is performed by ELISA. Binding of antigen is done in 96-well microtiter plates (Maxisorp F96, Nunc, DK) by conducting overnight incubation in a moist chamber at 4° C. with each well containing 0.1 ml of PBS (phosphate buffered saline) containing 0.001 mg/ml of Pb CS His6242-310 antigen. Blocking of the microtiter plate is performed with PBS containing 1% of bovine serum albumin (BSA, Fluka, Switzerland). Plates are washed with PBS containing 0.05% Tween 20 (Sigma, St. Louis, Mo., USA). Serum samples collected at 0, 3, 7 and 9 weeks are serially diluted with dilution buffer (PBS containing 2.5% of skimmed milk powder and 0.05% of Tween 20), then transferred into a microtiter plate and allowed to stand for 1 hr. at room temperature (RT). Plates are then washed with PBS, a diluted solution containing mouse polyclonal anti-immunoglobulin coupled to alkaline phosphatase (Sigma, St. Louis, Mo., USA) is then dispensed into those plates and incubated for 1 hr. at RT. […] Absorbance at 405 nm is read with a microtiter plate reader (Dynatech 25000 ELISA reader, Ashford, Middlesex, UK), each serum sample is measured in duplicate. Results stand for the mean of all measurements relating to mice in each group.

H1N1 antigen = experiment: Subcutaneous immunization with H1N1 antigen: specific serum immunoglobulins (ELISA); format: in vivo, BALB/c mice; settings: for Immunoglobulins specifically raised against H1N1 of IgG1 subclass / Immunoglobulins specifically raised against H1N1 of IgG2a subclass / Immunoglobulins specifically raised against H1N1 of IgM subclass: s.c. injections days 0 and 14, H1N1 2.5 μg, adjuvant 50 μg per injection, ± SD; for adjuvant effect on titer of antibodies specifically raised against H1N1: after one or two injections, FIGS. 22-24
LmCPb antigen = format: in vivo, CBA mice; settings: for extent of proliferation, times higher than cultures from mice administered antigen alone (without adjuvant): in presence of LmCPb (15 μg/ml)
DC-6 cells = experiment: α TNF production by predendritic cells at DC-6 stage (ELISA); settings: 10 μg/ml; 4, 6 and 24 hr; FIG. 10
[2] = tested on: Pb CS 245-252 T-cell epitope; experiment: Murine immunization with Pb CS His6-242-310 peptide: CTL response (γ IFN ELISPOT); settings: 0.05 mg adjuvant + 0.02 mg antigen s.c.; FIGS. 17-20
[3] = 2 injections LmCPb 3–5 μg with 2×50 μg OM adjuvant or 200 μg BCG, in vitro: No stimulant
[4] = 2 injections LmCPb with adjuvant, in vitro: Amastigotes 2 × 10^−6/ml
[5] = 2 injections LmCPb with adjuvant, in vitro: Amastigotes 6 × 10^−6/ml
[6] = 2 injections LmCPb with adjuvant, in vitro: Amastigotes 17 × 10^−6/ml
[7] = 2 injections LmCPb with adjuvant, in vitro: Con A 5 μg/ml
[8] = 2 injections LmCPb with adjuvant, in vitro: LmCPb 0.6 μg/ml
[9] = 2 injections LmCPb with adjuvant, in vitro: LmCPb 1.7 μg/ml
[10] = 2 injections LmCPb with adjuvant, in vitro: LmCPb 5 μg/ml
[11] = 2 injections LmCPb with adjuvant, in vitro: LmCPb 15 μg/ml

| Structure (SMILES) | production of nitric oxide by murine macrophage cells (murine macrophage cells) | serological response following three shots [1] | anti-Pb CS His6-242-310 antibody titer after one single shot [1] | serological response after two shots [1] | Immunoglobulins specifically raised against H1N1 of IgG1 subclass (H1N1 antigen; Day 14) | Immunoglobulins specifically raised against H1N1 of IgG2a subclass (H1N1 antigen; Day 14) | Immunoglobulins specifically raised against H1N1 of IgM subclass (H1N1 antigen; Day 14) | Immunoglobulins specifically raised against H1N1 of IgG1 subclass (H1N1 antigen; Day 28) | Immunoglobulins specifically raised against H1N1 of IgG2a subclass (H1N1 antigen; Day 28) | Immunoglobulins specifically raised against H1N1 of IgM subclass (H1N1 antigen; Day 28) | adjuvant effect on titer of antibodies specifically raised against H1N1 (H1N1 antigen) | 3H-TdR take-up (LmCPb antigen; [3]) | 3H-TdR take-up (LmCPb antigen; [4]) | 3H-TdR take-up (LmCPb antigen; [5]) | 3H-TdR take-up (LmCPb antigen; [6]) | 3H-TdR take-up (LmCPb antigen; [7]) | 3H-TdR take-up (LmCPb antigen; [8]) | 3H-TdR take-up (LmCPb antigen; [9]) | 3H-TdR take-up (LmCPb antigen; [10]) | 3H-TdR take-up (LmCPb antigen; [11]) | other results |
| --- | --- | --- | --- | --- | --- | --- | --- | --- | --- | --- | --- | --- | --- | --- | --- | --- | --- | --- | --- | --- | --- |
| CCCCCCCCCCCC(=O)O[C@H](CCCCCCCCCCC)CC(=O)NC(CCOP(=O)(O)O)C(=O)NCCCC(COP(=O)(O)O)NC(=O)C[C@H](O)CCCCCCCCCCC (stereo partly drawn) [OM-294-DP, 3-[(R)-3-dodecanoyloxytetradecanoylamino]-4-oxo-5-aza-9-[(R)-3-hydroxytetradecanoylamino]decan-1,10-diol 1, 10-bis(dihydrogenphosphate)] | to a much greater extent than E. coli LPS | greater than that of IFA | almost as high as the response observed with Incomplete Freund's Adjuvant (IFA) | greater than that of IFA | 59 ± 21 Arbitrary units/ml | 452 ± 584 Arbitrary units/ml | 20756 ± 7160 Arbitrary units/ml | 38 ± 25 Arbitrary units/ml | 782 ± 857 Arbitrary units/ml | 20944 ± 9065 Arbitrary units/ml | significantly increase the titer of antibodies specifically raised against H1N1 | 21.8 ± 2.2 cpm × 10^−3/ml | 61.0 ± 1.7 cpm × 10^−3/ml | 81.5 ± 5.5 cpm × 10^−3/ml | 78.2 ± 7.8 cpm × 10^−3/ml | 135.9 ± 3.7 cpm × 10^−3/ml | 40.9 ± 12.7 cpm × 10^−3/ml | 57.2 ± 10.9 cpm × 10^−3/ml | 70.2 ± 9.2 cpm × 10^−3/ml | 100.0 ± 6.5 cpm × 10^−3/ml | extent of proliferation, times higher than cultures from mice administered antigen alone (without adjuvant) (LmCPb antigen): 28 times; α TNF production by DC-6 cells (DC-6 cells): only a minor stimulating effect; CTL activity of lymphocytes from spleen and inguinal lymph nodes (γ IFN spots) [2]: clearly superior to the one induced by IFA |
| CCCCCCCCCCCC(=O)O[C@H](CCCCCCCCCCC)CC(=O)NC(CCOP(=O)(O)O)C(=O)NCCCC(CO)NC(=O)C[C@H](O)CCCCCCCCCCC (stereo partly drawn) [OM-294-MP, 3-[(R)-3-dodecanoyloxytetradecanoylamino]-4-oxo-5-aza-9-[(R)-3-hydroxytetradecanoylamino]-decane-1,10-diol 1-dihydrogenphosphate] | weaker response | greater than that of IFA | almost as high as the response observed with Incomplete Freund's Adjuvant (IFA) | greater than that of IFA | 69 ± 34 Arbitrary units/ml | 1619 ± 743 Arbitrary units/ml | 19065 ± 4069 Arbitrary units/ml | 59 ± 31 Arbitrary units/ml | 1767 ± 1034 Arbitrary units/ml | 18018 ± 1016 Arbitrary units/ml | significantly increase the titer of antibodies specifically raised against H1N1 | 17.1 ± 2.5 cpm × 10^−3/ml | 28.4 ± 8.3 cpm × 10^−3/ml | 66.1 ± 4.5 cpm × 10^−3/ml | 68.7 ± 2.3 cpm × 10^−3/ml | 151.4 ± 3.7 cpm × 10^−3/ml | 22.9 ± 2.8 cpm × 10^−3/ml | 34.1 ± 4.1 cpm × 10^−3/ml | 70.3 ± 6.4 cpm × 10^−3/ml | 124.2 ± 12.0 cpm × 10^−3/ml | extent of proliferation, times higher than cultures from mice administered antigen alone (without adjuvant) (LmCPb antigen): 23 times; α TNF production by DC-6 cells (DC-6 cells): in a way similar to LPS; CTL activity of lymphocytes from spleen and inguinal lymph nodes (γ IFN spots) [2]: clearly superior to the one induced by IFA |
